Where two headings read alike, the source gives them in different places.
Key:
[1] = tested on: JNK1 and JNK2; assay: Western blot of JNK activation in Lama 84 and KYO.1 cells; type: cell-based, human; details: Lama 84 and KYO.1, 45 minutes
[2] = tested on: tyrosine phosphorylated proteins; assay: Protein tyrosine phosphorylation Western blot, K562 cells; type: cell-based, human
Procedure: Jurkat and CML cells (5×10^6) were harvested by centrifuigation at 1800 g for 10 min at 4° C. After being washed once with ice-cold phosphate-buffered saline, the cell pellet was suspended in 100 μl of ice-cold lysis buffer (50 mM Tris-HCl, pH 8.0, 150 mM NaCl, 0.1%.SDS, 1% Triton X-100, 1 mM sodium 1 mM phenylmethylsulfonyl, 10 ng/ml leupeptin and 10 ng/ml of aprotinin). The cells were left to sit on ice for 10 min and then centrifuged at 20,000 g for 20 min. The resulting supernatant was stored at −70° C. until measurement of tyrosine phosphorylation. Protein determination was measured by using the Bradford assay. Equal amounts of protein were resolved by SDS-polyacrylamide gel electrophoresis in 15% gels and transferred onto polyvinylidene difluoride (PVDF) membranes. Membranes were blocked with Tris-buffered saline with Tween 20 (10 mM Tris-HCl, pH 8.0, 150 mM NaCl, 0.05% Tween 20) containing 1% w/v BSA and probed with anti-phosphotyrosine antibody. Blots were washed, incubated with goat anti-mouse IgG peroxidase conjugate and developed by ECL according to the manufacturer's recommendations.

[3] = molecular target: T1, peripheral-type benzodiazepine receptor (PBR) (Homo sapiens, UniProt P30536); assay: Radioligand binding assay, inhibition of [^3H]PK 11195 binding to HL-60 homogenates; details: HL-60 homogenates, 2 nM [^3H]PK 11195; mean±SEM; read-out: Inhibition of [^3H]PK 11195 binding to the PBR, Ki value
T1 construct: Cell homogenates (50 μg protein) were incubated with 0.5-50 nM [^3H]; PK 11195; endogenous in cells; host or cells: HL-60 cell homogenate
T1 sequence (P30536 whole entry): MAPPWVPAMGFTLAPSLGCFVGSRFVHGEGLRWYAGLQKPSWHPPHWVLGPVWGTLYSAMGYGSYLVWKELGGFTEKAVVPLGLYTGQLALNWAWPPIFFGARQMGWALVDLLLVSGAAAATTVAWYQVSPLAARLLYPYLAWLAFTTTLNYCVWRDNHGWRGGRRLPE
Procedure: HL-60 cells were harvested by centrifugation at 600 g for 5 min and washing in phosphate-buffered saline. The resulting cell pellet was homogenised in 50 mM Tris/HCl buffer, pH 7.4 (2 ml), using an Ultraturrax homogeniser (10 sec) and then passed 5 times through a 21 gauge needle. Cell homogenates (50 μg protein) were incubated with 0.5-50 nM [^3H] PK 11195 in 50 mM Tris/HCl buffer, pH 7.4 (incubation buffer), in a total volume of 0.5 ml on ice. Total and non-specific/non-saturable binding in each case was determined in the absence and presence of 10 μM unlabelled PK 11195 respectively. All samples were incubated in triplicate for 60 min. The incubation mixtures were then filtered and counted as previously described (O'Beirne, et al., 1988). When testing the potency of a compound to inhibit [^3H] PK 11195 binding, samples were incubated with 2 nM [3H] PK 11195 and various concentrations (0.1 nM to 1 μM) of compound and subsequently treated exactly as above. The resulting Ki values were then generated by the use of the computer programs EBDA and LIGAND.
The amount of radioactivity bound in the presence of the displacer was expressed as a percentage of control bonding and the values represent the mean±SEM of triplicate determinations from one representative experiment performed at least twice. The Ki values were obtained as described in Methods section.

[4] = tested on: normal bone marrow progenitor cells; type: cell-based, human; details: 10 μM, 72 hours; for colonies scored, mean of 10 normal bone marrow samples: colonies scored after 14 days
Procedure: Bone Marrow samples from donor patients were suspended in RPMI and heparin. Approximately 5 mls of Lympoprep was poured into a sterilin and the bone marrow sample was gently layered on top. The sample was centrifuged at 1800 g for 25 min, brake at 2. Following centrifugation, the buffy coat layer which contained the mononucleur fraction was gently removed using a sterile pasteur pipette and was transferred to a fresh tube. Approximately 10 mls of RPMI was added and the sample was centrifuged at 1800 g for 10 minutes, brake at 9. The supernatant was removed and the wash repeated. The pellet was resuspended in approximately 2 mls of RPMI. 20 μl was removed from the sample, mixed with 380 μl of ethidium bromide/acridine orange mix.(each at 100 μg/ml in PBS, 1:1 v/v). Ethidium bromide and acridine orange are fluorescent dyes which bind DNA. Acridine orange intercalates into DNA giving it a green appearance. Ethidium bromide is taken up by non-viable cells only. This dye also intercalates into the DNA, making it appear orange. The cells were counted under a fluorescent microscope and the volume of cells was adjusted to obtain 4×10^6 cells per ml. Cells were divided into 2 flasks and treated with 0.5% (v/v) ethanol or 10 μM PBOX-6. 100 μl was taken from each flask and added to 1.9 mls of culture media (0.58 ml methylcellulose, 0.55 ml FCS, 0.18 ml BSA, 0.21 ml RPMI, 5 U/ml of granulocytoe monocyte-colony stimulating factor (GM-CSF) and 20 U/ml of erythropoietin (EPO). Tubes were mixed by vortexing and allowed to stand for 1 min before adding 0.5 ml into each of three wells of a 4 well dish. 0.5 ml of sterile water was added to the fourth well. Plates were incubated at 37° C. for 14 days. After 14 days, colonies were scored. A colony is scored as a cluster containing >40 cells, which originates form one stem cell. […]

[5] = tested on: Cytochrome C; assay: Cytochrome C Western blot, CML cell cytosol; type: cell-based, human; details: K562, KYO.1, Lama 84; 16 hour treatment
Procedure: Cells (15×10^6) were harvested by centrifugation at 1800 g for 10 min at 4° C. After being washed once with ice-cold phosphate-buffered saline, the cell pellet was suspended in 100 μl of ice-cold buffer A (20 mM Hepes, pH 7.5, 10 mM KCl, 1.5 mM MgCl2, 1 mM sodium EDTA, 1 mM sodium EGTA, 1 mM dithiotreitol and 0.1 mM phenylmethylsulfonyl fluoride) supplemented with protease inhibitors (5 μg/ml pepstatin A, 10 μg/ml leupeptin and 2 μg/ml of aprotinin). The cells were left to sit on ice for 15 min and then centrifuged at 20,000 g for 20 min. The resulting supernatant was stored at −70° C. until measurement of cytochrome C. Protein determination was measured by using the Bradford assay. Equal amounts of protein were resolved by SDS-polyacrylamide gel electrophoresis in 15% gels and transferred onto nitro-cellulose. Membranes were blocked with phosphate-buffered saline/5% (w/v) dry milk and probed with anti-cytochrome C antibody. Blots were washed, incubated with goat anti-mouse IgG peroxidase conjugate and developed by ECL according to the manufacturer's recommendations.

[6] = tested on: p38; assay: Western blot of p38 activation in K562 cells; type: cell-based, human; details: K562, 5 min up to 8 hours

In the case of CN(C)C(=O)OC1=C(c2cccc3ccccc23)Oc2ccccc2-n2cccc21 [PBOX-6, 7-((Dimethylcarbamoyl)oxy)-6-(1-naphthyl)pyrrolo[2,1-d][1,5]benzoxazepine], the “activation of JNK1 and JNK2” value [1] is reported as “found to be activated”, the “tyrosine phosphorylation status of proteins” value ([2]; K562, 5, 15 or 30 min) is reported as “no effect” and the “tyrosine phosphorylation status of proteins” value ([2]; K562, 16 hours, proteins approx 63 kDa and 71 kDa) is reported as “increase in the phosphorylation of two proteins”. For the same compound, the Ki [3] was 6.7 ± 1.7 nM, the “effect on normal bone marrow progenitor cells” value [4] was “no significant effect” and the “colonies scored, mean of 10 normal bone marrow samples” value [4] was 17. The “colonies scored, mean of 10 normal bone marrow samples” value ([4]; listed as PBOX 6) was 16.9, the “cytochrome C levels in the cytosol” value [5] was “unchanged” and the “activation of p38” value [6] was “failed to activate p38”.

From patent publication US6806267B1, “Apoptosis-inducing compounds” (priority 1998, dated 2004)
